{
  "source": "patent US20250002523A1",
  "about": "“RUBUSOSIDE GLUCOSIDES” (SYMRISE AG, priority 2021, published 2025)",
  "origin": "cited, not measured here",
  "conditions": "reported in the background section",
  "data": [
    {"smiles": "C=C1C[C@@]23CC[C@H]4[C@@](C)(CCC[C@@]4(C)C(=O)O[C@@H]4O[C@H](CO)[C@@H](O)[C@H](O)[C@H]4O)[C@@H]2CC[C@]1(O[C@@H]1O[C@H](CO)[C@@H](O)[C@H](O)[C@H]1O)C3", "note": "[Rubusoside]", "values": [
      {"measurement": "sweet taste impression relative to sucrose", "result": "200 times as strong as sucrose"}
    ]}
  ]
}
